Here are results for 3 molecules from paper PMC10078976 (Nature chemistry, 2022).

For orientation: Kd means the equilibrium constant for the complex coming apart. High values mean lower affinity, low ones higher affinity.

The conditions of data set [1]: lasso peptides, aspartimide hydrolysis; cited from earlier work.
For data set [2], the target named is doubly dehydrated C62A ThfA (Thermobifida fusca). The data set is described as follows: BLI. (In general: Biolayer interferometry detects binding as a change in optical thickness at a sensor tip.)
Data set [3] concerns the target unmodified C62A ThfA (Thermobifida fusca). The data set is described as follows: BLI.

As to lihuanodin, the “regioselectivity of aspartimide opening” value in data set [1] is listed as “open exclusively to the Asp backbone form”. As for cellulonodin-2, in data set [1], the “regioselectivity of aspartimide opening” value is on record as “open exclusively to the Asp backbone form”.

B1: maltose binding protein (MBP) fusion to ThfB (enzyme)
chain: MSQAEYEFAATEARRGFGGIINSLTGWINHPSAIGRAEYKPYQLHHAVQAGLNVPRTLITNDPKQAKGWCARVGDVVYKPLSAPSWLENGDTYVVFTTPITPDQWGDPAIGRTAHMFQQRLDKEFEVRLTMVDGKAFPAAIHAHSDAARIDWRSDYDALTYSIPTVPQRVLTGARDLLRRLHLRYAALDFIVSPDGRWHFLEVNPNGQYGWIEEHTGQPISDAIADALTRKEN
modifications: not checked
With B1, the Kd came to 18 nM in data set [2] and 28 nM in data set [3].
